From ChEMBL document CHEMBL1201862, “PubChem BioAssay data set” (2004)
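The compound was tested at five concentrations on cells cultured in 96-well plates, with a 48-hour exposure period. GI50: concentration for 50% inhibition of growth.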 Activity calls are given as the source filed them. No stated cut-off is given here; in the data, active = GI50 up to about 1.1 µM and inactive = higher.

Experiments:
Experiment in all cases: NCI-60 cell line screen, 48 h
[1] = system: UO-31
[2] = system: COLO 205
[3] = system: CAKI-1
[4] = system: KM12
[5] = system: SN12C
[6] = system: A549
[7] = system: SNB-19
[8] = system: SK-MEL-2
[9] = system: Malme-3M
[10] = system: MDA-MB-231
[11] = system: UACC-62
[12] = system: HOP-92
[13] = system: NCI-H23
[14] = system: OVCAR-8
[15] = system: OVCAR-4
[16] = system: CCRF-CEM
[17] = system: Hs-578T
[18] = system: LOX IMVI
[19] = system: IGROV-1
[20] = system: DU-145

Row | SMILES | GI50 [1] | GI50 [2] | GI50 [3] | GI50 [4] | GI50 [5] | GI50 [6] | GI50 [7] | GI50 [8] | GI50 [9] | GI50 [10] | GI50 [11] | GI50 [12] | GI50 [13] | GI50 [14] | GI50 [15] | GI50 [16] | GI50 [17] | GI50 [18] | GI50 [19] | GI50 [20]
1 | CCOC(=O)N1CCN(c2ccc3ccc(N)nc3n2)CC1 | > 100 µM (inactive) | > 100 µM (inactive) | > 100 µM (inactive) | > 100 µM (inactive) | > 100 µM (inactive) | > 100 µM (inactive) | > 100 µM (inactive) | > 100 µM (inactive) | > 100 µM (inactive) | > 100 µM (inactive) | > 100 µM (inactive) | > 100 µM (inactive) | > 100 µM (inactive) | > 100 µM (inactive) | > 100 µM (inactive) | 50.1 µM (inactive) | > 100 µM (inactive) | > 100 µM (inactive) | > 100 µM (inactive) | > 100 µM (inactive)
2 | CCCCCc1c(CCCC)c(=O)[nH]c2cc(CNCC(OC)OC)ccc12 | 13.2 µM (inactive) | 2.41 µM (inactive) | 10.9 µM (inactive) | 11.7 µM (inactive) | 14.2 µM (inactive) | 12.6 µM (inactive) | 12.8 µM (inactive) | 11.7 µM (inactive) | 2.83 µM (inactive) | 15.2 µM (inactive) | 5.85 µM (inactive) | 7.41 µM (inactive) | 17.4 µM (inactive) | 16.3 µM (inactive) | 14.7 µM (inactive) | 4.05 µM (inactive) | 18.5 µM (inactive) | 6.01 µM (inactive) | 14.9 µM (inactive) | 14.6 µM (inactive)
3 | CC/C(Cl)=N\OC(=O)Nc1ccc(C#N)cc1 | 17.2 µM (inactive) | 1.82 µM (inactive) | 5.04 µM (inactive) | 17.1 µM (inactive) | 16.4 µM (inactive) | 18.2 µM (inactive) | > 100 µM (inactive) | 15.9 µM (inactive) | 4.11 µM (inactive) | 15.3 µM (inactive) | 15 µM (inactive) | 3.15 µM (inactive) | 17.2 µM (inactive) | 16.9 µM (inactive) | 8.09 µM (inactive) | 1.63 µM (inactive) | 21.9 µM (inactive) | 4.47 µM (inactive) | 16.4 µM (inactive) | 16 µM (inactive)
4 | C=C1C(=O)O[C@@H]2C[C@]3(C)CC[C@]4(C)[C@H](CC[C@@H]5[C@@]6(C)CCC(=O)C(C)(C)[C@@H]6CC[C@]54C)[C@H]3[C@H]12 [OCHRACEOLIDE A] | 14.8 µM (inactive) | 7.19 µM (inactive) | 13.1 µM (inactive) | 19.2 µM (inactive) | 17.5 µM (inactive) | 22.2 µM (inactive) | 26.9 µM (inactive) | 22.4 µM (inactive) | 15.8 µM (inactive) | 24.7 µM (inactive) | 16.9 µM (inactive) | 9.31 µM (inactive) | 23.7 µM (inactive) | 13.7 µM (inactive) | 18.3 µM (inactive) | 2.43 µM (inactive) | 31.6 µM (inactive) | 15.2 µM (inactive) | 18.7 µM (inactive) | 17.9 µM (inactive)
5 | N#CC1=C(N)OC(c2ccc([N+](=O)[O-])cc2)C1(C#N)C#N (stereo not given) | 6.27 µM (inactive) | 5.94 µM (inactive) | 0.785 µM (active) | > 33.7 µM (inactive) | 14.5 µM (inactive) | 24.4 µM (inactive) | 22.4 µM (inactive) | 14.6 µM (inactive) | 10.2 µM (inactive) | 16.4 µM (inactive) | 8.71 µM (inactive) | 7.94 µM (inactive) | 15.3 µM (inactive) | 17.5 µM (inactive) | 17.8 µM (inactive) | 2.57 µM (inactive) | 25.9 µM (inactive) | 8.49 µM (inactive) | 15.6 µM (inactive) | 17.9 µM (inactive)
6 | N#Cc1c(=O)c2ccccc2n2ccccc12 | 97.9 µM (inactive) | > 100 µM (inactive) | > 100 µM (inactive) | > 100 µM (inactive) | > 100 µM (inactive) | 29.8 µM (inactive) | 83.6 µM (inactive) | 13.4 µM (inactive) | > 100 µM (inactive) | > 100 µM (inactive) | > 100 µM (inactive) | > 100 µM (inactive) | > 100 µM (inactive) | > 100 µM (inactive) | > 100 µM (inactive) | > 100 µM (inactive) | > 100 µM (inactive) | > 100 µM (inactive) | > 100 µM (inactive) | > 100 µM (inactive)
7 | O=C(O)c1ccccc1CC1Cc2ccccc2C1 | > 100 µM (inactive) | > 100 µM (inactive) | > 100 µM (inactive) | > 100 µM (inactive) | > 100 µM (inactive) | > 100 µM (inactive) | > 100 µM (inactive) | > 100 µM (inactive) | > 100 µM (inactive) | > 100 µM (inactive) | > 100 µM (inactive) | > 100 µM (inactive) | > 100 µM (inactive) | > 100 µM (inactive) | > 100 µM (inactive) | > 100 µM (inactive) | > 100 µM (inactive) | > 100 µM (inactive) | > 100 µM (inactive) | > 100 µM (inactive)
8 | CCOC(=O)C1C(=O)C=C(c2cc(C)ccc2O)CC1c1cccc(Br)c1 (stereo not given) | 20.9 µM (inactive) | 16.2 µM (inactive) | 21.9 µM (inactive) | 13.2 µM (inactive) | 16.9 µM (inactive) | 20.1 µM (inactive) | 13.4 µM (inactive) | 18.5 µM (inactive) | 16.3 µM (inactive) | 19.6 µM (inactive) | 14 µM (inactive) | 10.4 µM (inactive) | 17.5 µM (inactive) | 30 µM (inactive) | 0.075 µM (active) | 19.4 µM (inactive) | 14.8 µM (inactive) | 15.6 µM (inactive) | 12.6 µM (inactive) | 34.4 µM (inactive)
9 | COc1ccc2nc(N/N=C/C(C)=N/Nc3cc(C)c4cc(OC)ccc4n3)cc(C)c2c1 | > 80.4 µM (inactive) | 23.2 µM (inactive) | 49.4 µM (inactive) | 18.7 µM (inactive) | 23.9 µM (inactive) | 19.7 µM (inactive) | 23.1 µM (inactive) | > 68.1 µM (inactive) | 50.9 µM (inactive) | 19 µM (inactive) | 30.8 µM (inactive) | 36.2 µM (inactive) | 23.1 µM (inactive) | 19.1 µM (inactive) | 18.5 µM (inactive) | 2.47 µM (inactive) | 31 µM (inactive) | 22.6 µM (inactive) | 21 µM (inactive) | 18.1 µM (inactive)
10 | [B].c1ccc([Si](OCCN2CC2)(c2ccccc2)c2ccccc2)cc1 | 15.2 µM (inactive) | 12.2 µM (inactive) | 16.3 µM (inactive) | 15.6 µM (inactive) | 14.3 µM (inactive) | 11.9 µM (inactive) | 0.436 µM (active) | 0.557 µM (active) | 14.9 µM (inactive) | 14.9 µM (inactive) | 14.2 µM (inactive) | 2.36 µM (inactive) | 15.6 µM (inactive) | 16.6 µM (inactive) | 10.8 µM (inactive) | 18.7 µM (inactive) | 12.4 µM (inactive) | 14.5 µM (inactive) | 12.9 µM (inactive) | 13.7 µM (inactive)
11 | O=C1NN(c2ccccc2)C(=O)C2C3c4ccccc4C(c4ccccc43)C12 (stereo not given) | > 100 µM (inactive) | 78.2 µM (inactive) | > 100 µM (inactive) | > 100 µM (inactive) | 77.1 µM (inactive) | > 100 µM (inactive) | > 100 µM (inactive) | > 100 µM (inactive) | 85.1 µM (inactive) | 41 µM (inactive) | > 100 µM (inactive) | > 100 µM (inactive) | > 100 µM (inactive) | > 100 µM (inactive) | 60 µM (inactive) | 22.5 µM (inactive) | 83.2 µM (inactive) | > 100 µM (inactive) | > 100 µM (inactive) | > 100 µM (inactive)
12 | COC(=O)/C=C/c1ccc2c(c1)[C@H](C(=O)OC)[C@@H](c1ccc(O)cc1)O2 | 28.5 µM (inactive) | 25.2 µM (inactive) | 45.3 µM (inactive) | 19 µM (inactive) | 43.5 µM (inactive) | 34.2 µM (inactive) | 21.9 µM (inactive) | 4.62 µM (inactive) | 20.6 µM (inactive) | 14.8 µM (inactive) | 20 µM (inactive) | 59 µM (inactive) | 46.8 µM (inactive) | 37 µM (inactive) | 29.3 µM (inactive) | 9.06 µM (inactive) | 31.2 µM (inactive) | 18 µM (inactive) | 27.4 µM (inactive) | 71.3 µM (inactive)
13 | O=C1C(=O)N(c2cccc(C(F)(F)F)c2)C(=O)C(=O)C1c1nc2ccccc2s1 | 79.8 µM (inactive) | > 100 µM (inactive) | > 100 µM (inactive) | > 64 µM (inactive) | > 93.3 µM (inactive) | > 100 µM (inactive) | > 100 µM (inactive) | > 100 µM (inactive) | 68.1 µM (inactive) | 73.6 µM (inactive) | > 100 µM (inactive) | > 100 µM (inactive) | > 59.7 µM (inactive) | 20.2 µM (inactive) | > 92.5 µM (inactive) | 24.5 µM (inactive) | > 100 µM (inactive) | 68.9 µM (inactive) | > 81.7 µM (inactive) | > 100 µM (inactive)
14 | CCOC(=O)NC(N(C)C(C(C)C)P(=O)(OCC)OCC)(C(F)(F)F)C(F)(F)F (stereo not given) | > 100 µM (inactive) | > 100 µM (inactive) | > 100 µM (inactive) | > 100 µM (inactive) | > 100 µM (inactive) | > 100 µM (inactive) | > 100 µM (inactive) | > 100 µM (inactive) | > 100 µM (inactive) | > 100 µM (inactive) | > 100 µM (inactive) | > 100 µM (inactive) | > 100 µM (inactive) | > 100 µM (inactive) | > 100 µM (inactive) | > 100 µM (inactive) | > 100 µM (inactive) | > 100 µM (inactive) | > 100 µM (inactive) | > 100 µM (inactive)
